Counter-ions that a name gives are not always drawn.
molecular target: T1, MLK-7 (Homo sapiens, UniProt Q9NYL2); experiment: In vitro assay of purified MLK-7 kinase activity (33P transfer from ATP to myelin basic protein); format: biochemical; conditions: recombinant GST-tagged MLK-7 at 1 nm, 30 uM ATP, 5 uM MBP substrate, 2 hours room temperature; read-out: MLK7 IC50
T1 construct: GST; His tag; made in house; host or cells: Sf9 insect cells (baculovirus, pVL1392)
Method in brief: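 GST/His-tagged MLK-7 from Sf9 (baculovirus), 1 nM, with 5 uM MBP, 30 uM ATP plus 33P, 5 mM MgCl2, 2 mM DTT, 4% DMSO in 44 mM HEPES pH 7.4; 2 h at room temperature, stopped with phosphoric acid. Filter-bound 33P counted; IC50 for reduced phosphate transfer, Ki via Cheng-Prusoff.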

T1 sequence (Q9NYL2 1-455 isoform Q9NYL2-2): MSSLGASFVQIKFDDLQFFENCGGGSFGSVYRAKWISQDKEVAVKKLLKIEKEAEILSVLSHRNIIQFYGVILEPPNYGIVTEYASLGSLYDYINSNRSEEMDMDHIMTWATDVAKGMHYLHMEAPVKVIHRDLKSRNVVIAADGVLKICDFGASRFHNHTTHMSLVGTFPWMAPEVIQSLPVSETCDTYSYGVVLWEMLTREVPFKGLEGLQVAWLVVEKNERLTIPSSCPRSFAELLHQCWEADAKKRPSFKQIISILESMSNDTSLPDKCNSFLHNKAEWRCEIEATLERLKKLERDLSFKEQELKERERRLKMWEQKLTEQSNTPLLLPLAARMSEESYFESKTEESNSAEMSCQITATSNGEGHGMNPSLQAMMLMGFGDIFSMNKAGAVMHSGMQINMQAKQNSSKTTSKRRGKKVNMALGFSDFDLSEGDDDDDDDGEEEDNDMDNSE

SMILES	IC50
CC(C)(C)OC(=O)CC[C@H](NC(=O)c1ccc(-c2ccc3c(-c4c(-c5ccccn5)nn5c4CCC5)ccnc3c2)cc1)C(=O)OC(C)(C)C [Example 135, 2(S)-{4-[4-(2-Pyridin-2-yl-5,6-dihydro-4H-pyrrolo[1,2-b]pyrazol-3-yl)-quinolin-7-yl]-benzoylamino}-pentanedioic Acid Di-tert-Butyl Ester]	≤ 1000 nM
CN(C)C(=O)c1ccc(-c2ccc3c(-c4c(-c5ccccn5)nn5c4CCC5)ccnc3c2)cc1 [Example 136, N,N-Dimethyl-4-[4-(2-pyridin-2-yl-5,6-dihydro-4H-pyrrolo[1,2-b]pyrazol-3-yl)-quinolin-7-yl]-benzamide]	≤ 100 nM
CC(C)(C)OC(=O)CCNC(=O)c1ccc(-c2ccc3c(-c4c(-c5ccccn5)nn5c4CCC5)ccnc3c2)cc1 [Example 137, 3-{4-[4-(2-Pyridin-2-yl-5,6-dihydro-4H-pyrrolo[1,2-b]pyrazol-3-yl)-quinolin-7-yl]-benzoylamino}-propionic Acid tert-Butyl Ester]	≤ 100 nM
CNC(=O)c1ccc(-c2ccc3c(-c4c(-c5ccccn5)nn5c4CCC5)ccnc3c2)cc1 [Example 138, N-Methyl-4-[4-(2-pyridin-2-yl-5,6-dihydro-4H-pyrrolo[1,2-b]pyrazol-3-yl)-quinolin-7-yl]-benzamide]	≤ 100 nM
NC(=O)c1ccc(-c2ccc3c(-c4c(-c5ccccn5)nn5c4CCC5)ccnc3c2)cc1 [Example 141, 4-[4-(2-Pyridin-2-yl-5,6-dihydro-4H-pyrrolo[1,2-b]pyrazol-3-yl)-quinolin-7-yl]-benzamide]	≤ 100 nM
NCCCC[C@H](NC(=O)c1ccc(-c2ccc3c(-c4c(-c5ccccn5)nn5c4CCC5)ccnc3c2)cc1)C(=O)O [Example 143, 6-Amino-2(S)-{4-[4-(2-pyridin-2-yl-5,6-dihydro-4H-pyrrolo[1,2-b]pyrazol-3-yl)-quinolin-7-yl]-benzoylamino}-hexanoic acid, Ditrifluoroacetic Acid Salt]	≤ 100 nM
CSC[C@@H](NC(=O)c1ccc(-c2ccc3c(-c4c(-c5ccccn5)nn5c4CCC5)ccnc3c2)cc1)C(=O)O [Example 145, 3-Methylsulfanyl-2(S)-{4-[4-(2-pyridin-2-yl-5,6-dihydro-4H-pyrrolo[1,2-b]pyrazol-3-yl)-quinolin-7-yl]-benzoylamino}-propionic Acid Trifluoroacetic Acid Salt]	≤ 100 nM

Next, values leading:

IC50	SMILES
≤ 100 nM	CS(=O)(=O)CCNC(=O)c1ccc(-c2ccc3c(-c4c(-c5ccccn5)nn5c4CCC5)ccnc3c2)cc1 [Example 139, N-(2-Methanesulfonyl-ethyl)-4-[4-(2-pyridin-2-yl-5,6-dihydro-4H-pyrrolo[1,2-b]pyrazol-3-yl)-quinolin-7-yl]-benzamide]
≤ 100 nM	CN(C)/C=N/C(=O)c1ccc(-c2ccc3c(-c4c(-c5ccccn5)nn5c4CCC5)ccnc3c2)cc1 [Example 140, N-Dimethylaminomethylene-4-[4-(2-pyridin-2-yl-5,6-dihydro-4H-pyrrolo[1,2-b]pyrazol-3-yl)-quinolin-7-yl]-benzamide]
≤ 100 nM	O=C(O)CC[C@H](NC(=O)c1ccc(-c2ccc3c(-c4c(-c5ccccn5)nn5c4CCC5)ccnc3c2)cc1)C(=O)O [Example 146, 2(S)-{4-[4-(2-Pyridin-2-yl-5,6-dihydro-4H-pyrrolo[1,2-b]pyrazol-3-yl)-quinolin-7-yl]-benzoylamino}-pentanedioic Acid Trifluoroacetic Acid Salt]
≤ 100 nM	O=C(O)CCNC(=O)c1ccc(-c2ccc3c(-c4c(-c5ccccn5)nn5c4CCC5)ccnc3c2)cc1 [Example 147, 3-{4-[4-(2-Pyridin-2-yl-5,6-dihydro-4H-pyrrolo[1,2-b]pyrazol-3-yl)-quinolin-7-yl]-benzoylamino}-propionic Acid Trifluoroacetic Acid Salt]
